The assay concerns p53-negative cells (TOV21G-shp53, A549-shp53, MCF7-shp53, U2OS-shp53, dominant negative U2OS-mtp53). Nature of the assay: Cell viability by MTT assay after RSK1 siRNA lipofection, p53-negative cells. The assay is classed as cell-based. To be noted: p53-negative cells with siRNA of RSK1, 96 hours. The protocol:
First, as p53-positive cells, prepared were TOV21G, A549, MCF7 and U2OS cells. As p53-negative cells, prepared were TOV21G-shp53, A549-shp53, MCF7-shp53 and U2OS-shp53 by introducing shRNA of p53 into the above-mentioned four types of cells. Further, dominant negative U2OS-mtp53 cells were also prepared by introducing V157Fp53 into U2OS cells.
Next, siRNA of RSK1 was introduced into the above cells according to a lipofection method, and the cells were incubated in a 10% FCS-containing D-MEM medium (10% FCS-containing MacCoy's 5A medium for U2OS cells) in the presence or absence of cisplatin (CDDP) for 96 hours, and then their viability was measured through MTT assay. As the siRNA of RSK1, used was a mixture of the following three sequences.

Turning to `N.N.[Cl][Pt][Cl]` [cisplatin], the “effect of cisplatin under RSK1 expression inhibition” value was “enhanced”.
